# In US20220362279A1, “USE OF OLIGONUCLEOTIDES FOR THE TREATMENT AND PREVENTION OF PAIN” (CONSEJO NACIONAL DE INVESTIGACIONES CIENTÍFICAS Y TÉCNICAS, priority 2018, published 2022):
# “Also recorded” adds a separate entry of the source. Strand notation (5' to 3'): a small letter for the sugar, then the base; units joined by * are phosphorothioate-linked, units joined directly phosphodiester-linked; [ ] holds rarer units or linkages, { } end groups; capitals alone tell only the bases. d = 2'-deoxy (DNA)
# Legend:
# Assay type in all cases: in vivo, rat
# [1] = test system: rats with SNI; experiment: Mechanical allodynia in rats with spared nerve injury (SNI); conditions: single dose of 6 mg/kg seven days after SNI, s.c.
# Description: In twenty-six rats anesthetized with Isoflurane (5% induction, 2.5% maintenance, 0.8 L/min O2 flow rate; Piramal Healthcare, UK), the right sciatic nerve and its three distal branches were exposed by blunt dissection, and the tibial and common peronneal branches completely sectioned and ligated to prevent regeneration. The third branch, the sural nerve, was left intact. The animals received one single injection of ketoprofen for post-surgical pain control and were left to recover from anesthesia in a warm and quiet environment before relocating them in their corresponding cages.
# Rats were administered subcutaneously using the LT protocol (FIG. 4A) and a single dose of 6 mg/kg of IMT504. This was followed by pain-like behavior testing for up to six weeks after SNI.
# Naïve (uninjured and untreated; n=16), CFA injured untreated (n=10), and vehicle-treated CFA (n=9) or SNI rats (n=10) were used as controls. Eight naïve rats remained untreated, four were vehicle-treated, and four received a daily dose of 20 mg/kg IMT504 for five consecutive days. Untreated CFA rats received an intradermal hind paw injection of CFA and no further treatment. Vehicle-treated CFA rats received five daily subcutaneous injections of saline (200 μl), starting seven days after injury. Vehicle-treated SNI rats received one single dose of saline (200 ul), starting seven days after injury. […]
# [2] = test system: rats with hind paw inflammation (CFA rats); experiment: Cold allodynia (acetone drop) in rats with CFA-induced hind paw inflammation
# Protocol: In fifty-two rats anesthetized with Isoflurane (5% induction, 2.5% maintenance, 0.8 L/min O2 flow rate; Piramal Healthcare, UK), the right hind paw was injected intra-dermally with 100 μl of CFA (1:1, dissolved in normal saline; Sigma-Aldrich, Mo., USA), using a 1 ml syringe with a 25G needle attached. The animals (from now on, called CFA rats) were left to recover from anesthesia in a warm and quiet environment before relocating them in their corresponding cages.
# In one set of experiments, called “preventive treatment”, four rats received a daily dose of 20 mg/kg IMT504 for five consecutive days and four weeks later one dose of 6 mg/kg (group a); a second group of four rats received one dose of 6mg/kg of IMT504 (group b) (FIG. 1A). Three days after the single injection of 6 mg/kg IMT504, all eight rats received intra-plantar CFA, after which they were tested for mechanical and cold allodynia during 21 days. At day 28, group b received an additional administration of IMT504 at a dose of 3 mg/kg and was evaluated until day 35.
# For cold allodynia assessment, the reaction to the application of a drop of acetone onto the plantar surface of the hind paw was used. Both frequency of withdrawal and cold score (pain-like behavior intensity) were measured. […]
# [3] = test system: rats with postsurgical pain (plantar incision); experiment: Opioid sparing: morphine in VEH- or IMT504-pre-treated rats with plantar incision, mechanical withdrawal threshold
# Protocol: In all experiments, the oligodeoxynucleotide (ODN) IMT504, with sequence 5′-[…]-3′ (SEQ ID No 1) was used. The HPLC-grade phosphorothioate ODN (Biosynthesis Inc., Lewisville, Tex., USA) was suspended in sterile saline solution (VEH, 0.9% NaCl; 20 mg/ml; storage concentration) and assayed for LPS contamination. Working concentration doses (6 mg/kg) were obtained by additional dissolving in sterile VEH. The ODN was administered subcutaneously, at a final volume of 200-300 μl, depending on animal weight.
# Experiments addressing the opioid sparing effects of IMT504 included the subcutaneous (s.c.) injection of morphine hydrochloride trihydrate (Neocalmans, 10 mg/ml, Soubeiran Chobet, Buenos Aires, Argentina) at three different concentrations (1, 3 or 10 mg/kg, dissolved in sterile distilled water).
# The rat hind paw plantar incision model of postoperative pain was used as previously described [Brennan, T. J., E. P. Vandermeulen, and G. F. Gebhart, Characterization of a rat model of incisional pain. Pain, 1996. 64(3): p. 493-501. Briefly, rats were anesthetized using isoflurane (5% induction, 2.5% maintenance, 0.8 l/min O2 flow rate; Piramal Healthcare, UK) and the plantar aspect of the right hind paw was disinfected with povidone iodine. A 1.0-cm longitudinal incision was made 0.5 cm from the end of the heel. The underlying flexor muscle was also incised longitudinally, allowing the muscle origin and insertion to remain intact. After hemostasis by gentle pressure, the skin was closed with sutures of 5-0 nylon.
# Rats were divided into injured rats receiving IMT504 (6 mg/kg, dissolved in VEH) or VEH alone, 48h and 24 h prior to surgery. These groups were further subdivided into: 1) Rats followed during 3 days after the injury (n=6 per group), for assessment of pain-like behavior after the co-administration of morphine dissolved in injectable water (vehicle) at different doses, 6 and 24 h after injury; 2) Rats followed during 3 days after the injury (n=6 per group), for assessment of pain-like behavior after the co-administration of injectable water (vehicle) alone, 6 and 24 h after injury; 3) Rats followed during 21 days (n=8), for analysis of the administration of naloxone, 3 days after injury.
# Mechanical withdrawal thresholds were assessed by using von Frey nylon monofilaments of different bending forces (1.4, 2, 6, 8, 10, 15 and 26 g; Stoelting Inc., Wooddale, USA) and the modified up-down method of Dixon, as described by Chaplan and cols. (Chaplan, S. R., et al., Quantitative assessment of tactile allodynia in the rat paw. J Neurosci Methods, 1994. 53(1): p. 55-63) , to establish the 50% withdrawal threshold. Results were obtained using the formula: 50% g threshold=[…], where Xf=value (in log units) of the final von Frey hair used; k=tabular value for the pattern of positive/negative responses; and […] difference (in log units) between stimuli. Mechanical withdrawal thresholds were tested 48 h before surgery (basal responses), and 6 h, 1, 3, 7, 14 and 21 days after injury.
# A dose-response experiment to evaluate the effect of the s.c. administration of morphine at different doses (10, 3 and 1 mg/kg), 6 h or 1 day after injury, in VEH- or IMT504-treated rats (time-points were chosen based on the fact that a certain degree of mechanical withdrawal threshold alterations was still present in IMT504-treated rats was done, which allowed to test if within this therapeutic window, it was possible to fully revert pain-like behavior using smaller morphine doses). […]
# [4] = 6 mg/kg 3 days before CFA (FIG. 7)
# [5] = 6 mg/kg 3 days before CFA, booster 3 mg/kg day 28
# [6] = 20 mg/kg daily x5 plus single 6 mg/kg three days before CFA
substance,measurement,setting,value
IMT504: synthetic phosphorothioate oligodeoxynucleotide with sequence 5′-TCATCATTTTGTCATTTTGTCATT-3′ (SEQ ID No 1) (DNA dT*dC*dA*dT*dC*dA*dT*dT*dT*dT*dG*dT*dC*dA*dT*dT*dT*dT*dG*dT*dC*dA*dT*dT),full recovery of mechanical withdrawal thresholds,[1],fully recovered from week three and onwards
same,time from which mechanical withdrawal thresholds are almost at basal levels,[1],12 days after injury
same,period after induction of inflammation during which IMT504 prevents cold allodynia,[2]; [4],1 days
same,time of reaching cold allodynic levels comparable to vehicle-treated rats,[2]; [4],7 days after injury
same,effect of an additional dose of 3 mg/kg IMT504 28 days after injury on cold allodynia,[2]; [5],full anti-allodynic effect; also recorded: complete reduction in mechanical and cold allodynia
same,time at which the anti-allodynic effect (cold) of the reinforcement dose is lost,[2]; [5],35 days after injury
same,progression of cold allodynia,[2]; [6],very slow increase in cold withdrawal frequency; also recorded: slow progression towards cold allodynia
same,time of peak of cold allodynia,[2]; [6],21 days after injury
same,frequency of cold allodynia,"[2]; both preventive groups, twenty days after injury",60%
same,time of peak of cold allodynia,"[2]; single dose of 6 mg/kg only, three days before CFA",21 days after injury
same,protection against cold allodynia,"[2]; single dose of 6 mg/kg only, three days before CFA, 6 mg/kg",more moderate anti-allodynic effect; also recorded: milder protection against cold allodynia
same,"cold allodynia vs injured vehicle-treated rats, days 1 and 3 after injury",[2]; single preventive dose of 6 mg/kg (FIG. 11B),significantly lower than that observed in injured vehicle-treated rats
same,"cold allodynia vs vehicle-treated rats, from day 7 on","[2]; single preventive dose of 6 mg/kg (FIG. 11B), differences not statistically significant",always showed lower levels of cold allodynia than vehicle-treated rats
same,anti-allodynic effect of pre-emptive IMT504 and 3 mg/kg morphine,[3]; 6 h and 1 day after injury challenges,anti-allodynic effects directly comparable to those described for the 10 mg/kg dose in VEH rats
same,time post injection of morphine with withdrawal thresholds remaining significantly higher,"[3]; IMT504-pre-treated rats (6 mg/kg, 48 h and 24 h before surgery), particularly at morphine 3 and 10 mg/kg",≥ 120 min
same,withdrawal threshold once the effect of the opioid had worn out (240 min),"[3]; IMT504 rats receiving 10 mg/kg morphine, 1 day after injury, vs VEH counterparts",retained a significantly higher withdrawal threshold than their VEH counterparts
same,reduction in morphine concentration to achieve the same effect as in VEH-treated injured rats receiving the highest dose,"[3]; area under the curve analyses (FIG. 16, FIG. 17)",3 fold
